In patent US8017350B2, “Glimepiride- and insulin-induced glycosylphosphatidylinositol-specific phospholipase C regulation” (Sanofi-Aventis Deutschland GmbH, priority 2004, dated 2011):

Molecular target: T1, rat serum GPI-PLD (Rattus norvegicus, UniProt Q8R2H5)
T1 construct: GPI-PLD (rat serum) was assayed according to; from tissue; host or cells: rat serum
Experiment: GPI-PLD (rat serum) assay, human placental aP substrate
Type: biochemical
Conditions: FIG. 2; read-out: apparent IC50
Experimental: GPI-PLD (rat serum) was assayed according to “Hari et al. (1997) Biochim. Biophys. Acta 1355: 293-302” by incubation with 10 μl of human placental aP solution (100 U/ml in 10 mM Hepes/NaOH, pH 7.0, 150 mM NaCl) in 100 μl of 200 mM Tris/maleate (pH 7.0) and 1% Nonidet P-40 for 10 min at 37° C. and subsequent termination of the reaction by addition of 0.4 ml of ice-cold stop buffer (10 mM Hepes/NaOH, pH 7.0, 150 mM NaCl, 0.1 mM MgCl2 and 0.01 mM zinc acetate). GPI-PLC (T. brucei) was assayed as described in “Mensa-Wilmot et al. (1995) Methods Enzymol. […]
Pelleted hc/lcDIGs (10-50 μg protein) or (G)PI-PLC reaction mixtures (0.5 ml) were separated into amphiphilic and hydrophilic proteins using partitioning between TX-114-enriched and depleted phases according to “Bordier, C., (1981) J. Biol, Chem. […]” by suspending in 1 ml of ice-cold TX-114 (1%), 25 mM Tris/HCl (pH 7.4), 144 mM NaCl or mixing with 0.5 ml of ice-cold TX-114 (2%), respectively. […] After re-extraction of the lower TX-114-enriched phase, aliquots of the pooled upper TX-114-depleted phase were measured for 5′-Nuc, aP and AChE activity or precipitated (15 polyethylene glycol 4000) for SDS-PAGE analysis.
FIG. 2: Potency of GPI-2350. […] The lipolytic activity was calculated as % of the control reaction in the absence of GPI-2350 (set at 100%). […]

T1 sequence (Q8R2H5 24-843): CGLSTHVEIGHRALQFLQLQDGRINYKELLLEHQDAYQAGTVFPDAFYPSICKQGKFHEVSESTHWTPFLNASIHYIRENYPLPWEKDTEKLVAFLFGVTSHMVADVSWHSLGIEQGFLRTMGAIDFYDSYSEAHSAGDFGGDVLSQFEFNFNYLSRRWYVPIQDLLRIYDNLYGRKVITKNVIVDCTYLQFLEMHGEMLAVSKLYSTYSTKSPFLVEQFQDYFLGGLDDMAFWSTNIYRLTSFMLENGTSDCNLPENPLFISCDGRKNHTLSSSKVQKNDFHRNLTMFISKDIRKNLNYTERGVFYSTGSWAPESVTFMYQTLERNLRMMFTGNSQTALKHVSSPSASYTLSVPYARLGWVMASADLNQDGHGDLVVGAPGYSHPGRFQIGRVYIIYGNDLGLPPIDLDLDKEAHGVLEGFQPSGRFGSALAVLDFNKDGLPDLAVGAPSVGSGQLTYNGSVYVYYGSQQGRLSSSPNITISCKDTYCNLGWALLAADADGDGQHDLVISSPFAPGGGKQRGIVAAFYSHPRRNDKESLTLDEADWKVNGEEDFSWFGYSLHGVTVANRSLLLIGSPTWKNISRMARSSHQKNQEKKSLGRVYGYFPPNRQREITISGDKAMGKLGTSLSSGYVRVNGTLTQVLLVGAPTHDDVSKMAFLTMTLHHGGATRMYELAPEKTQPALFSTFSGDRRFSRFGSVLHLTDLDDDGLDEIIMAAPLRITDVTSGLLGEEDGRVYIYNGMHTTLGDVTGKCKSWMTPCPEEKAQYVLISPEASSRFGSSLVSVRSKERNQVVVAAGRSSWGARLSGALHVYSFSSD

For CCCCCCCCCCCCP1(=O)O[C@@H]2[C@H](O)[C@@H](O)[C@H](O)[C@@H](O)[C@@H]2O1 (stereo partly shown) [GPI-2350, myo-inositol-1,2-cyclo-dodecylphosphonic acid], the IC50 was 1000 nM.
